Data reported in the supplement of paper PMC10307832.

What was measured:
Test in all cases: relative viability (nuclei count vs DMSO), 5 days (fraction); higher = more cells survive
[1] = compound: O=C1NC(=O)[C@@H](c2cn3c4c(cccc24)CCC3)[C@@H]1c1c[nH]c2ccccc12 [Tivantinib] + Nc1nc2[nH]cc(CCc3ccc(C(=O)N[C@@H](CCC(=O)O)C(=O)O)cc3)c2c(=O)[nH]1 [Pemetrexed] (partner 0.2 µM)
Method in brief: (§1)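 Values are medians from duplicate plates. Each reflects relative viability, defined as the nuclei count of treated wells over that of vehicle wells. Lung cancer cell lines in 1536-well plates were pin-tool dosed one day after seeding with one drug alone or with a fixed anchor-drug dose plus five library-drug doses (not always all listed) in √10 steps, then fixed, stained and imaged at 4× after 5 days.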

[2] = compound: CC1(COc2ccc3c(c2)ncn3-c2ccc3cccc(N4CCC(N)CC4)c3n2)COC1 [Crenolanib] + C[C@]1(O)C[C@@H](c2nc(-c3ccc4ccc(-c5ccccc5)nc4c3)c3c(N)nccn32)C1 [Linsitinib] (partner 1 µM)
Method in brief: as §1

[3] = compound: O=C1NC(=O)[C@@H](c2cn3c4c(cccc24)CCC3)[C@@H]1c1c[nH]c2ccccc12 [Tivantinib] + O=C(c1cc(Cc2n[nH]c(=O)c3ccccc23)ccc1F)N1CCN(C(=O)C2CC2)CC1 [Olaparib] (partner 8 µM)
Method in brief: as §1

[4] = compound: O=C1NC(=O)[C@@H](c2cn3c4c(cccc24)CCC3)[C@@H]1c1c[nH]c2ccccc12 [Tivantinib] + C[C@@H](Oc1cc(-c2cnn(C3CCNCC3)c2)cnc1N)c1c(Cl)ccc(F)c1Cl [Crizotinib] (partner 1 µM)
Method in brief: as §1

Cell Line	relative viability ([1]; first compound 0.01 µM)	relative viability ([1]; first compound 0.03162 µM)	relative viability ([1]; first compound 0.1 µM)	relative viability ([1]; first compound 0.3162 µM)	relative viability ([2]; first compound 0.01 µM)	relative viability ([2]; first compound 0.03162 µM)	relative viability ([2]; first compound 0.1 µM)	relative viability ([2]; first compound 0.3162 µM)	relative viability ([2]; first compound 1 µM)	relative viability ([3]; first compound 0.01 µM)	relative viability ([3]; first compound 0.03162 µM)	relative viability ([3]; first compound 0.1 µM)	relative viability ([3]; first compound 0.3162 µM)	relative viability ([4]; first compound 0.01 µM)	relative viability ([4]; first compound 0.03162 µM)	relative viability ([4]; first compound 0.1 µM)	relative viability ([4]; first compound 0.3162 µM)
COR-L 105	1.02	1.05	1.08	0.696	0.873	1.09	0.748	1.22	0.92	0.739	0.665	0.729	0.585	0.725	0.769	0.787	0.435
SK-LU-1	0.935	1.06	0.96	1.04	1.09	0.649	0.869	1.16	0.809	0.595	0.464	0.433	0.512	0.95	1.01	0.872	0.716
PC-3 [JPC-3]	1.24	1.27	1.21	0.72	0.965	0.956	0.899	0.988	0.887	1.09	1.12	1.11	0.662	1.03	1.05	0.996	0.759
NCI-H661	0.922	0.961	0.975	0.844	0.628	0.527	0.499	0.544	0.497	0.742	0.744	0.706	0.699	0.914	1	0.962	0.736
NCI-H2087	0.645	0.78	0.58	0.603	1.02	1.13	0.917	1.23	1.02	0.56	0.628	0.602	0.658	0.987	0.913	0.856	1.01
NCI-H1755	0.475	0.381	0.358	0.439	1.01	0.981	0.994	1.09	0.959	0.9	0.85	0.848	0.898	0.892	0.878	0.793	0.92
NCI-H2228	0.363	0.319	0.329	0.352	0.762	0.591	0.565	0.691	0.729	0.43	0.815	0.678	0.587	0.449	0.481	0.427	0.337
EMC-BAC-2	0.457	0.448	0.475	0.479	0.826	0.874	0.805	0.821	0.808	0.45	0.477	0.485	0.582	0.833	0.728	0.751	0.657
NCI-H2009	1.01	1.12	1.04	1.08	1.23	1.2	1.2	1.21	1.19	0.714	0.674	0.746	0.643	1.05	1.07	1.06	0.98
NCI-H596	0.503	0.406	0.453	0.426	1.01	0.994	0.97	0.961	1.18	0.734	0.661	0.655	0.6	1.08	0.92	0.987	0.905
NCI-H650	1.19	0.842	0.839	0.909	1.06	0.969	0.952	0.923	0.715	0.41	0.432	0.356	0.34	0.728	–	0.629	0.557
NCI-H1915	0.423	0.482	0.495	0.53	1.13	1.13	1.07	1.09	1.06	0.262	0.227	0.244	0.239	0.868	0.888	0.852	0.91
SW 1573	0.918	0.797	0.818	0.76	0.873	0.841	0.704	0.96	0.81	0.532	0.481	0.544	0.488	0.751	0.761	0.902	0.496
NCI-H1355	1.03	1.01	1	1.03	0.857	0.848	0.773	0.947	0.809	0.807	0.742	0.726	0.64	1.15	1.1	1.01	0.806
NCI-H1651	0.553	0.548	0.572	0.58	1.06	0.988	0.892	1.02	0.878	0.207	0.187	0.194	0.195	0.893	0.828	0.867	0.762
NCI-H2023	0.278	0.206	0.253	0.191	0.669	0.678	0.626	0.801	0.621	0.52	0.452	0.479	0.402	0.602	0.762	0.673	0.639

Cell Line	relative viability ([1]; first compound 0.01 µM)	relative viability ([1]; first compound 0.03162 µM)	relative viability ([1]; first compound 0.1 µM)	relative viability ([1]; first compound 0.3162 µM)	relative viability ([2]; first compound 0.01 µM)	relative viability ([2]; first compound 0.03162 µM)	relative viability ([2]; first compound 0.1 µM)	relative viability ([2]; first compound 0.3162 µM)	relative viability ([2]; first compound 1 µM)	relative viability ([3]; first compound 0.01 µM)	relative viability ([3]; first compound 0.03162 µM)	relative viability ([3]; first compound 0.1 µM)	relative viability ([3]; first compound 0.3162 µM)	relative viability ([4]; first compound 0.01 µM)	relative viability ([4]; first compound 0.03162 µM)	relative viability ([4]; first compound 0.1 µM)	relative viability ([4]; first compound 0.3162 µM)
LU99A	0.173	0.201	0.16	0.178	0.547	0.559	0.531	0.628	0.603	0.272	0.267	0.251	0.254	0.516	0.593	0.576	0.413
NCI-H3122	0.179	0.199	0.196	0.162	1.03	1	0.994	1.07	1.05	0.643	0.608	0.584	0.665	0.271	0.275	0.252	0.272
LOU-NH91	0.394	0.428	0.4	0.468	1.02	0.908	0.822	0.887	0.936	0.861	0.888	0.9	0.715	0.746	0.729	0.705	0.53
NCI-H647	0.17	0.192	0.18	0.184	1.14	1.11	1.09	1.31	1.34	0.425	0.638	0.401	0.638	1.18	1.07	1.03	0.995
NCI-H838	0.253	0.258	0.239	0.227	1.05	0.967	0.929	1.09	0.943	0.775	0.77	0.71	0.816	0.831	0.924	0.886	0.963
HARA	0.279	0.252	0.263	0.24	0.914	0.886	0.983	0.975	0.926	1.02	0.49	0.735	0.732	1.07	1.01	1.01	0.878
SK-MES-1	0.95	0.913	0.816	0.783	1.09	1.13	0.945	1.13	1.04	0.751	0.659	–	0.874	0.984	1.06	0.89	0.739
LXF-289	0.925	0.501	0.896	0.925	0.974	1.02	0.955	1.02	0.972	1.02	1.05	1.01	1.02	0.792	0.819	0.777	0.827
HOP-62	0.333	0.29	0.368	0.247	0.94	0.764	0.906	1.04	1.01	0.463	0.451	0.329	0.477	0.828	–	0.972	1.03
LK-2	0.261	0.286	0.276	0.244	0.675	0.626	0.624	0.425	0.562	0.903	0.639	0.73	0.687	0.2	–	0.223	0.218
HCC-44	0.62	0.654	0.616	0.664	0.674	0.67	0.638	0.673	0.629	0.961	0.963	1.01	0.941	0.766	0.915	0.773	0.787
BEN	0.724	0.71	0.636	0.684	1.03	0.895	0.83	0.848	0.911	1.05	1.01	0.961	0.857	0.897	0.72	0.672	0.681
NCI-H2347	0.405	0.454	0.394	0.419	0.972	1.02	0.736	1.04	0.873	0.556	0.593	0.583	0.552	0.756	0.564	0.74	0.674
201T	0.328	0.281	0.357	0.319	1.05	1.04	1.01	1.04	1.11	0.837	0.794	0.817	0.831	1.01	1.01	1.04	1.02
NCI-H520	0.695	0.716	0.631	0.652	0.89	1.07	0.853	1.08	0.868	0.347	0.339	0.291	0.37	0.797	0.764	0.758	1.05
